Legend:
[1] = Maximum copper complex content (solubility / encapsulation) of lipid formulations; assay type: physicochemical
[2] = Solubility limit in cubosomes solution (F03 nanostructured dispersions), sedimentation; assay type: physicochemical
[3] = background; cited from earlier work
[4] = background; cited from earlier work; remark: listed apart in the source
[5] = Hydrated lipid systems (F02): transparency check method for maximum solubility / encapsulation; assay type: physicochemical
[6] = background; cited from earlier work; remark: listed apart in the source
[7] = Centrifugation (200 rpm for 5 min) of F01 encapsulation mixtures; assay type: physicochemical; details: encapsulated mixture in MO or DU, visibly homogeneous at room temperature before
Procedure: It was in fact possible to add up to 126 mg of CuASP in 1 g of MO (as per F01-CuASP-MO-E) and up to about 130 mg in 1 g of DU (as per F01-CuASP-DU-E) (FIG. 4). […] With mere mixing by spatula the formulation was again homogeneous thereby encapsulating excess CuASP in the lipid phase.
With mere mixing by spatula the formulation was again homogeneous thereby encapsulating excess CuSL in the lipid phase.

solubility in lipids ([1]; non-aqueous lipids (MO, DU), F01): 1 mg/g | amount possible to add (encapsulation) in 1 g of DU ([1]; non-aqueous, in 1 g of DU (F01-...-DU-E)): up to 130 mg | amount possible to add (encapsulation) in 1 g of MO ([1]; non-aqueous, in 1 g of MO (F01-...-MO-E)): up to 126 mg | solubility limit in cubosomes solution per g of lipid ([2]; 10 g cubosomes (0.5 g lipid + 9.5 g of 0.5% F127 solution)): 50 mg/g of lipid | content that was sedimented in cubosomes solution ([2]; in 10 g cubosomes (0.5 g lipid + 9.5 g of 0.5% F127 solution in water)): 26 mg | amount encapsulated in DU cubic phase ([5]; in 1.25 g cubic phase): 400 mg | amount encapsulated in DU cubic phase per g of lipid ([5]; viscous cubic phase in presence of water): About 533 mg per g of lipid | sedimentation after centrifugation [7]: some part of the powder sedimented
SMILES: CC(=O)Oc1ccccc1C(=O)[O-].CC(=O)Oc1ccccc1C(=O)[O-].CC(=O)Oc1ccccc1C(=O)[O-].CC(=O)Oc1ccccc1C(=O)[O-].[Cu+2].[Cu+2] [CuASP, Copper (II) Aspirinate]
solubility in water [3]: poorly soluble in water | potency as an anti-inflammatory agent compared to aspirin [4]: more potent | irritancy to digestive track compared to aspirin [6]: less irritant

— patent publication US20250387415A1, “COMPOSITIONS OF COPPER COMPLEXES” (University of Lancashire, priority 2022, published 2025)
